According to US12599610B2, “Solid dosage formulations of an orexin receptor antagonist” (Merck Sharp & Dohme LLC, priority 2012, dated 2026):
Read-outs that look alike come from different tables or passages of the source.

Experiment: clinical food-effect pharmacokinetic study in healthy human men, fasted vs high-fat breakfast
Details: male, in vivo, po, 40 mg; for Tmax / Cmax / half-life: single oral 40 mg; for AUC(0-inf): single oral 40 mg dose of hot melt extrusion composition; for half-life: read-out: Apparent Terminal t1/2 (converted)
Protocol: The pharmacokinetic profile of this composition of suvorexant was also tested by administering a single dose of the formulation to healthy human men. […] In the second period of this clinical study, the 7 subjects in each treatment groups were crossed over and received the other treatment.
The fed/fasted GMR and 90% confidence intervals for AUC0-inf were 0.98 (0.90, 1.07).

Cc1ccc(-n2nccn2)c(C(=O)N2CCN(c3nc4cc(Cl)ccc4o3)CC[C@H]2C)c1 [Suvorexant, 5-chloro-2-{(5R)-5-methyl-4-[5-methyl-2-(2H-1,2,3-triazol-2-yl)benzoyl]-1,4-diazepan-1-yl}-1,3-benzoxazole]
Tmax (Tmax (Suvorexant Fed/Suvorexant Fasted), fed/fasted): 1.5 h
AUC(0-inf) (Fasted (8-hour fast)): 13.2 µM·h
AUC(0-inf) (Fed (standard high-fat breakfast)): 13 µM·h
Cmax (Fasted): 1000 nM
half-life (Fasted): 10.9 h
Tmax (Fasted, read-out: Tmax): 2 h
Cmax (Fed (high-fat breakfast)): 1100 nM
half-life (Fed (high-fat breakfast)): 11.8 h
Tmax (Fed (high-fat breakfast), read-out: Tmax): 3 h
